According to publication PMC8617258, “Plant LHC-like proteins show robust folding and static non-photochemical quenching” (Nature Communications, 2021):
Positions count from the first letter of the chain named.

T1: LIL3 (LIL3.1) (Arabidopsis thaliana, UniProt Q9SYX1)
T1 construct: PCC 6803 GT-P, DDM-solubilized, dimer
T1 sequence (Q9SYX1 40-262): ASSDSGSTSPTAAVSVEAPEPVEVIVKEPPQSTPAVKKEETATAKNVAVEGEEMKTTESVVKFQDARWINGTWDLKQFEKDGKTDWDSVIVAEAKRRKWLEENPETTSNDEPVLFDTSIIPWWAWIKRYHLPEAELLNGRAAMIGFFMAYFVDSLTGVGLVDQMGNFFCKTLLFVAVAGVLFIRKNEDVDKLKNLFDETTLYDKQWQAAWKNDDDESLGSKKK

T2: LIL3 (LIL3.1) (Arabidopsis thaliana, UniProt Q9SYX1, N177D)
T2 construct: PCC 6803 GT-P, DDM-solubilized, dimer
T2 sequence (Q9SYX1 40-262 N177D): T1 sequence (Q9SYX1 40-262) with N138D

T3: LIL3 (LIL3.1) (Arabidopsis thaliana, UniProt Q9SYX1, N177A)
T3 construct: PCC 6803 GT-P, DDM-solubilized, dimer
T3 sequence (Q9SYX1 40-262 N177A): T1 sequence (Q9SYX1 40-262) with N138A

T4: ELIP2 (Arabidopsis thaliana, UniProt Q94K66)
T4 construct: PCC 6803 GT-P, DDM-solubilized, monomeric
T4 sequence (Q94K66 44-193): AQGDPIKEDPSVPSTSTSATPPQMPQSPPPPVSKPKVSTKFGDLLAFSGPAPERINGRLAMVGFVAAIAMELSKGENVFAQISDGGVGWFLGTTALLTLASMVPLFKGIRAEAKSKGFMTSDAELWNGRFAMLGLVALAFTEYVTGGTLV

B1: LIGHT-HARVESTING-LIKE 3 protein LIL3.1 from Arabidopsis, 8xHis-tagged, without the predicted signal sequence (natural protein, UniProt Q9SYX1 40-262, looked up)
chain: T1 sequence (Q9SYX1 40-262)
notes: printed mass 25.1 KDa; Cloned into the pPD-NFLAG plasmid by NdeI and BglII with 8xHis added by the forward primer; From the wild type background it carries Chl and zeaxanthin; from ZEP^+ and xant^- it is (almost) colourless; also called LIL3[2]; LIL3 (ZEP^+); source: Synechocystis sp; PCC 6803 (psbAII promoter; wild type, ZEP^+ or xant^- background), purified from DDM-solubilized membranes …

Experiments:
LIL3 (LIL3.1) [1] = biological target: T1, LIL3 (LIL3.1); experiment: co-purification (Ni-NTA, sucrose gradient), CN-PAGE, SEC, HPLC pigment analysis; assay type: binding; conditions: dimer; pH 6.5, 0.03% DDM, 15 °C
LIL3 (LIL3.1) [2] = biological target: T2, LIL3 (LIL3.1); experiment: co-purification, 2D CN/SDS-PAGE; assay type: binding; conditions: DDM-solubilized
LIL3 (LIL3.1) [3] = biological target: T3, LIL3 (LIL3.1); experiment: co-purification; pigment colour of the purified protein; assay type: binding; conditions: DDM-solubilized
ELIP2 = biological target: T4, ELIP2; experiment: co-purification (Ni-NTA, sucrose gradient), SEC, HPLC pigment analysis; assay type: binding; conditions: pH 6.5, 0.03% DDM, 15 °C
[4] = biological target: the molecule itself; experiment: native gel or EMSA; 2D clear native/SDS-PAGE (4-14% CN gel, DDM) of LIL3 purified from the wild type background, pigmented; Coomassie stain; mass judged against Synechocystis membrane complexes with a detergent belt assumed

Row | Molecule | co-purification (Ni-NTA, sucrose gradient), CN-PAGE, SEC, HPLC pigment analysis (LIL3 (LIL3.1) [1]) | no binding (LIL3 (LIL3.1) [2]) | no binding (LIL3 (LIL3.1) [3]) | co-purification (Ni-NTA, sucrose gradient), SEC, HPLC pigment analysis (ELIP2) | stoichiometry N [4]
1 | CC1=C(/C=C/C(C)=C/C=C/C(C)=C/C=C/C=C(C)/C=C/C=C(C)/C=C/C2=C(C)C[C@@H](O)CC2(C)C)C(C)(C)C[C@H](O)C1 [Zea, zeaxanthin] | Pigments extracted from the LIL3 SEC fraction contained Zea and Chl | showing that the N177D mutation abolishes pigment binding | (LIL3-N177A and LIL3-N177D) were purified from Synechocystis as completely colourless proteins | Pigments co-isolated with ELIP2 consisted of Zea, Chl, and β-Car | –
2 | CC1=C(/C=C/C(C)=C/C=C/C(C)=C/C=C/C=C(C)/C=C/C=C(C)/C=C/C2=C(C)CCCC2(C)C)C(C)(C)CCC1 [β-Car] | – | – | – | Pigments co-isolated with ELIP2 consisted of Zea, Chl, and β-Car | –
3 | B1 | – | – | – | – | 2
